These results are taken from patent US20170023576A1, “NOTCH3 ANTIBODIES AND USES THEREOF” (ONCOMED PHARMACEUTICALS, INC., priority 2014, published 2017).

In assay [1] the test system is OMP-PN08 pancreatic tumor. Description: Pancreatic tumor xenograft growth in vivo, OMP-PN08. Set-up: species or system human. The conditions noted are these: OMP-PN8 tumors in NOD/SCID mice; antibody 40 mg/kg every other week, gemcitabine 20 mg/kg weekly. The procedure:
(§1) Ten primary patient-derived pancreatic tumor xenografts were tested for efficacy in response to anti-Notch2/3 antibody OMP-59R5 in combination with gemcitabine. These tumors were OMP-PN04, OMP-PN07, OMP-PN08, OMP-PN11, OMP-PN13, OMP-PN16, OMP-PN17, OMP-PN21, OMP-PN23, and OMP-PN25.
In one representative example, OMP-PN8 pancreatic tumor cells (2×10^4) were injected into NOD/SCID mice. Tumors were allowed to grow for 22 days until they reached an average volume of 125 mm^3. Tumor-bearing mice were randomized into 4 groups and treated with control antibody, anti-NOTCH2/3 antibody OMP-59R5, gemcitabine, or a combination of OMP-59R5 and gemcitabine. Antibodies were dosed every other week at 40 mg/kg. Gemcitabine was dosed weekly at 20 mg/kg. Tumor growth was monitored and tumor volumes were measured with electronic calipers on the indicated days post-treatment.

For assay [2], the system named is OMP-PN11 pancreatic tumor. Description: Pancreatic tumor xenograft growth in vivo, OMP-PN11. Further details: species or system human. The conditions noted are these: OMP-PN11 tumors in NOD/SCID mice; antibody 40 mg/kg every other week, gemcitabine 20 mg/kg weekly. The procedure:
as §1
In a second representative example, OMP-PN11 pancreatic tumor cells (5×10^4) were injected into NOD/SCID mice. Tumors were allowed to grow for 21 days until they reached an average volume of 120 mm^3. Tumor-bearing mice were randomized into 4 groups and treated with control antibody, OMP-59R5, gemcitabine, or a combination of OMP-59R5 and gemcitabine. Antibodies were dosed every other week at 40 mg/kg. Gemcitabine was dosed weekly at 20 mg/kg. […] Tumor growth was monitored and tumor volumes were measured with electronic calipers on the indicated days post-treatment.

On to “OMP-59R5: anti-NOTCH2/3 therapeutic antibody; heavy chain variable region SEQ ID NO:18, light chain variable region SEQ ID NO:26”, for which, in assay [1], the “tumor growth (FIG. 1A)” value is “significantly inhibited tumor growth”. Also, the “tumor growth (FIG. 1B)” value in assay [2] is “no effect”.
